From patent US20170326125A1, “MULTISUBSTITUTED AROMATIC COMPOUNDS AS INHIBITORS OF THROMBIN” (VERSEON CORPORATION, priority 2016, published 2017)

Molecular target: T1, Human thrombin (Homo sapiens, UniProt P00734)
T1 construct: purchased Haematologic Technologies Inc
Test: Inhibition of the protease activity of thrombin (chromogenic substrate S-2238)
Type: biochemical
Settings: Table C; 3 nM thrombin, 125 μM S-2238, 10 min pre-incubation, RT

IC50	Structure (SMILES)
< 100 nM	O=C(Cc1ccccc1)n1nc(-c2ccccc2)nc1NCc1ccccc1 [Cmpd 353, 1-[5-(benzylamino)-3-phenyl-1H-1,2,4-triazol-1-yl]-2-phenylethan-1-one]
> 1000 nM	COC(=O)c1n[nH]c(N=Cc2cccnc2)n1 [Cmpd 387, methyl 5-[(pyridin-3-ylmethylidene)amino]-1H-1,2,4-triazole-3-carboxylate]
< 100 nM	CC(=O)n1nc(-c2cccnc2)nc1NCc1ccc(F)cc1 [Cmpd 317, 1-(5-[(4-fluorophenyl)methyl]amino-3-(pyridin-3-yl)-1H-1,2,4-triazol-1-yl)ethan-1-one]
> 1000 nM	Nc1nc(-c2ccco2)n[nH]1 [Cmpd 25, 3-(furan-2-yl)-1H-1,2,4-triazol-5-amine]
< 100 nM	O=C(c1ccccc1Cl)n1nc(-c2ccco2)nc1NCc1ccc(F)cc1 [Cmpd 331, 1-[(2-chlorophenyl)carbonyl]-N-[(4-fluorophenyl)methyl]-3-(furan-2-yl)-1H-1,2,4-triazol-5-amine]
< 100 nM	O=C(c1ccccc1Cl)n1nc(-c2ccco2)nc1NCc1ccccc1 [Cmpd 408, N-benzyl-1-[(2-chlorophenyl)carbonyl]-3-(furan-2-yl)-1H-1,2,4-triazol-5-amine]

Same assay, conditions: inhibition of the protease activity of thrombin

IC50	Structure (SMILES)
> 1000 nM	c1ccc(CNc2nc(-c3ccncc3)n[nH]2)cc1 [Cmpd 290, N-benzyl-3-(pyridin-4-yl)-1H-1,2,4-triazol-5-amine]
< 100 nM	COc1ccccc1C(=O)n1nc(-c2ccncc2)nc1NCc1ccccc1 [Cmpd 257, N-benzyl-1-[(2-methoxyphenyl)carbonyl]-3-(pyridin-4-yl)-1H-1,2,4-triazol-5-amine]
> 1000 nM	COc1ccccc1C(O)c1cc(-c2ccccn2)nn1CCc1ccc(F)cc1 (centres unmarked) [Cmpd 304, 1-[2-(4-fluorophenyl)ethyl]-3-(pyridin-2-yl)-1H-pyrazol-5-yl(2-methoxyphenyl)methanol]
< 100 nM	COc1ccccc1C(=O)n1nc(-c2ccco2)nc1NCc1ccccc1 [Cmpd 280, N-benzyl-3-(furan-2-yl)-1-[(2-methoxyphenyl)carbonyl]-1H-1,2,4-triazol-5-amine]
> 1000 nM	O=C(c1ccccc1C(F)(F)F)n1nc(-c2ccccn2)nc1NCc1ccccc1 [Cmpd 286, N-benzyl-3-(pyridin-2-yl)-1-[2-(trifluoromethyl)phenyl]carbonyl-1H-1,2,4-triazol-5-amine]
> 1000 nM	O=C(c1c(Cl)cccc1Cl)n1nc(-c2ccccn2)nc1NCc1ccccc1 [Cmpd 238, N-benzyl-1-[(2,6-dichlorophenyl)carbonyl]-3-(pyridin-2-yl)-1H-1,2,4-triazol-5-amine]

Same assay, conditions: inhibition of the protease activity of thrombin; class symbols a/b/c

IC50	Structure (SMILES)
> 1000 nM	COc1ccccc1C(=O)n1nc(-c2ccccn2)nc1NCc1csc2ccccc12 [Cmpd 199, N-(1-benzothiophen-3-ylmethyl)-1-[(2-methoxyphenyl)carbonyl]-3-(pyridin-2-yl)-1H-1,2,4-triazol-5-amine]
< 100 nM	CSc1nc(-c2cccs2)nn1C(=O)c1ccccc1Cl [Cmpd 110, 1-[(2-chlorophenyl)carbonyl]-5-(methylsulfanyl)-3-(thiophen-2-yl)-1H-1,2,4-triazole]
> 1000 nM	CN(C)C(=O)n1nc(-c2cccnc2)nc1NCc1ccc(F)cc1 [Cmpd 188, 5-[(4-fluorophenyl)methyl]amino-N,N-dimethyl-3-(pyridin-3-yl)-1H-1,2,4-triazole-1-carboxamide]
< 100 nM	CC(C)CC(=O)n1nc(-c2ccncc2)nc1NCc1ccc(F)cc1 [Cmpd 78, 1-(5-[(4-fluorophenyl)methyl]amino-3-(pyridin-4-yl)-1H-1,2,4-triazol-1-yl)-3-methylbutan-1-one]
< 100 nM	CCCC(=O)n1nc(-c2ccccn2)nc1NCc1ccc(OC)cc1 [Cmpd 92, 1-(5-[(4-methoxyphenyl)methyl]amino-3-(pyridin-2-yl)-1H-1,2,4-triazol-1-yl)butan-1-one]
100 to 1000 nM	COc1ccc(CNc2nc(-c3ccccn3)nn2C(=O)c2ccccc2)cc1 [Cmpd 157, 1-benzoyl-N-[(4-methoxyphenyl)methyl]-3-(pyridin-2-yl)-1H-1,2,4-triazol-5-amine]
> 1000 nM	O=C(O)c1cc(-c2ccccn2)n(CCc2ccc(F)cc2)n1 [Cmpd 58]
< 100 nM	CC(C)CC(=O)n1nc(-c2ccccn2)nc1NCc1ccccc1 [Cmpd 140, 1-[5-(benzylamino)-3-(pyridin-2-yl)-1H-1,2,4-triazol-1-yl]-3-methylbutan-1-one]

Tested on: malignant breast tumors
Test: not given
Settings: at 4 weeks, treated mice; cited from earlier work

Structure (SMILES)	reduction in tumor volume
CCCCCCOC(=O)NC(=N)c1ccc(NCc2nc3cc(C(=O)N(CCC(=O)OCC)c4ccccn4)ccc3n2C)cc1 [dabigatran etexilate]	50%

Same assay, conditions: at 4 weeks; cited from earlier work

Structure (SMILES)	weight loss in treated mice
CCCCCCOC(=O)NC(=N)c1ccc(NCc2nc3cc(C(=O)N(CCC(=O)OCC)c4ccccn4)ccc3n2C)cc1 [dabigatran etexilate]	no weight loss

Same assay, conditions: treated mice; cited from earlier work

Structure (SMILES)	reduced tumor cells in the blood and liver micrometastases
CCCCCCOC(=O)NC(=N)c1ccc(NCc2nc3cc(C(=O)N(CCC(=O)OCC)c4ccccn4)ccc3n2C)cc1 [dabigatran etexilate]	50-60%
